Data: US20050228188A1, “Astaxanthin medium-chain fatty acid ester, process for producing the same and composition containing the ester” (Suntory Limited, priority 2002, published 2005)

Assay: Digestibility of astaxanthins in rats: astaxanthin content in blood plasma and liver by HPLC after oral administration
Conditions: for digestibility (content of astaxanthin in blood plasma and liver) compared with astaxanthin extracted from Haematococcus (Astax9000H): rat, in vivo, po, 100 mg/kg
Method: Using a commercially available astaxanthin extracted from Chlorophyceae of Haematococcus (Itano, product name: Astax9000H) and astaxanthins mono- and di-esterified with a medium-chain fatty acid (Asta-C8-monoester and Asta-C8-diester), the digestibility of these astaxanthins was studied using rats. For the experiment, these astaxanthins were diluted with olive oil so as to obtain a ratio of 100 mg/kg in the conversion of a free astaxanthin, and the diluted astaxanthins were administered to rats (Wister rat). The content of astaxanthin contained in the blood (blood plasma) and the liver of each rat was measured using HPLC. The blood and liver were sampled at 3, 5, 7 and 10 hours after the administration.

digestibility (content of astaxanthin in blood plasma and liver) compared with astaxanthin extracted from Haematococcus (Astax9000H)	digestibility, rank among the astaxanthins tested (rats, oral, 100 mg/kg in conversion of free astaxanthin, blood plasma and liver at 3, 5, 7 and 10 hours)	Structure (SMILES)
much better digestibility	–	CCCCCCCC(=O)O[C@H]1CC(C)(C)C(/C=C/C(C)=C/C=C/C(C)=C/C=C/C=C(C)/C=C/C=C(C)/C=C/C2=C(C)C(=O)[C@@H](OC(=O)CCCCCCC)CC2(C)C)=C(C)C1=O [Asta-C8-diester, astaxanthin octanoic acid diester]
much better digestibility	most digested	CCCCCCCC(=O)OC1CC(C)(C)C(C=CC(C)=CC=CC(C)=CC=CC=C(C)C=CC=C(C)C=CC2=C(C)C(=O)C(O)CC2(C)C)=C(C)C1=O (stereo not drawn) [Asta-C8-monoester, astaxanthin octanoic acid monoester]
